Values quoted from earlier work, collected in US20130122099A1, “POLYETHYLENE GLYCOL-COATED SODIUM CARBONATE AS A PHARMACEUTICAL EXCIPIENT AND COMPOSITIONS PRODUCED FROM THE SAME” (priority 2008, published 2013).

settings: not given

| SMILES | pKa |
| --- | --- |
| CCN(CC)C(=O)N[C@H]1C[C@@H]2c3cccc4[nH]cc(c34)C[C@H]2N(C)C1 [Terguride] | 7.2 |
| CCC1(C)CC(=O)NC1=O (stereo not shown) [ethosuximide] | 9.3 |
| Cc1ccnc(NS(=O)(=O)c2ccc(N)cc2)n1 [Sulfamerazine] | 8.0 |
| CC1(C)S[C@@H]2[C@H](NC(=O)[C@H](N)c3ccc(O)cc3)C(=O)N2[C@H]1C(=O)O [amoxicillin] | 7.4 |
| CCCCOc1cc(C(=O)NCCN(CC)CC)c2ccccc2n1 [Dibucaine] | 8.5 |
| COc1cccc2c1C(=O)c1c(O)c3c(c(O)c1C2=O)C[C@@](O)(C(C)=O)C[C@@H]3O[C@H]1C[C@H](N)[C@H](O)[C@H](C)O1 [daunomycin] | 8.2 |
| COc1ccc2c(c1OC)C(=O)O[C@@H]2[C@H]1c2c(cc3c(c2OC)OCO3)CCN1C [Noscapine] | 7.8 |
| CC(C)(C)NC[C@H](O)COc1nsnc1N1CCOCC1 [Timolol] | 9.2 |
| CN(C)CCOC(=O)C(c1ccccc1)C1(O)CCCC1 (stereo not shown) [cyclopentolate] | 7.9 |
| Clc1ccc2nsnc2c1NC1=NCCN1 [Tizanidine] | 9.0 |
| COc1ccc(CN(CCN(C)C)c2ccccn2)cc1 [mepyramine] | 8.9 |
| CCN(CC)CCCC(C)Nc1cc(OC)cc2cccnc12 (stereo not shown) [Pamaquine] | 8.7 |
| CC[C@@H]1C(=O)OC[C@@H]1Cc1cncn1C [Pilocarpine] | 6.6 |
| CCC1(c2ccccc2)NC(=O)N(C)C1=O (stereo not shown) [mephenytoin] | 8.33 |
| O=c1[nH]c(=O)n([C@H]2C[C@H](O)[C@@H](CO)O2)cc1I [Idoxuridine] | 8.3 |
| CC(=O)/N=c1/sc(S(N)(=O)=O)nn1C [Methazolamide] | 7.3 |
| O=C1CN(/N=C/c2ccc(-c3ccc([N+](=O)[O-])cc3)o2)C(O)=N1 [dantrolene] | 7.5 |
| C=CCN1CC[C@]23c4c5ccc(O)c4O[C@H]2C(=O)CC[C@@]3(O)[C@H]1C5 [Naloxone] | 7.82 |
| CCC[C@@H]1C[C@@H](C(=O)N[C@@H]([C@H]2O[C@H](SC)[C@H](O)[C@@H](O)[C@H]2O)[C@@H](C)O)N(C)C1 [lincomycin] | 7.5 |
| NS(=O)(=O)c1cc2c(cc1C(F)(F)F)NCNS2(=O)=O [hydroflumethiazide] | 8.9 |
| Cc1cc(C)nc(NS(=O)(=O)c2ccc(N)cc2)n1 [Sulfamethazine] | 7.4 |

The remaining lines, values ahead:

| pKa | SMILES |
| --- | --- |
| 8.3 | N#Cc1ccc2c(c1)N(CCCN1CCC(O)CC1)c1ccccc1S2 [Periciazine] |
| 8.75 | CN1CCC(=C2c3ccccc3CC(=O)c3sccc32)CC1 [Ketotifen] |
| 8.7 | CNCCC(Oc1ccc(C(F)(F)F)cc1)c1ccccc1 (stereo not shown) [Fluoxetine] |
| 7.7 | Cc1nccn1CC1CCc2c(c3ccccc3n2C)C1=O (stereo not shown) [Ondansetron] |
| 8.6 | OC(CNCC(O)C1CCc2cc(F)ccc2O1)C1CCc2cc(F)ccc2O1 (stereo not shown) [Nebivolol] |
| 8.75 | CCn1cc(C(=O)O)c(=O)c2cc(F)c(N3CCNCC3)cc21 [norfloxacin] |
| 9.4 | CN[C@H]1CC[C@@H](c2ccc(Cl)c(Cl)c2)c2ccccc21 [Sertraline] |
| 9.4 | CN1C2CCCC1CC(NC(=O)c1nn(C)c3ccccc13)C2 (stereo not shown) [Granisetron] |
| 8.3 | CN1CCN2c3ccccc3Cc3ccccc3C2C1 (stereo not shown) [Mianserine] |
| 7.7 | CN1CCN2c3ncccc3Cc3ccccc3C2C1 (stereo not shown) [Mirtazapine] |
| 9.2 | CN1C(=O)CC(c2ccccc2)C1=O (stereo not shown) [phensuximide] |
| 7.7 | CN1CCN(C(c2ccccc2)c2ccccc2)CC1 [Cyclizine] |
| 7.1 | OCCOCCN1CCN(C(c2ccccc2)c2ccc(Cl)cc2)CC1 (stereo not shown) [hydroxyzine] |
| 7.32 | O=C1NCN(c2ccccc2)C12CCN(CCCC(c1ccc(F)cc1)c1ccc(F)cc1)CC2 [fluspirilene] |
| 7.2 | O=C1CC2(CCCC2)CC(=O)N1CCCCN1CCN(c2ncccn2)CC1 [Buspirone] |
| 7.7 | Cc1ccc2c(c1)c1c3n2CCNC3CCC1 (stereo not shown) [Pirlindole] |
| 7.83 | COc1cc(N)c(Cl)cc1C(=O)NC1CCN(CCCOc2ccc(F)cc2)CC1OC (stereo not shown) [Cisapride] |
| 8.0 | OC1(c2ccc(Cl)c(C(F)(F)F)c2)CCN(CCCC(c2ccc(F)cc2)c2ccc(F)cc2)CC1 [penfluridol] |
| 8.7 | CC(CCc1ccccc1)NCC(O)c1ccc(O)c(C(N)=O)c1 (stereo not shown) [Labetalol] |
| 8.2 | CN1CCCCC1CCN1c2ccccc2Sc2ccc([S+](C)[O-])cc21 (stereo not shown) [Mesoridazine] |
| 7.2 | c1ccc(CN(CC2=NCCN2)c2ccccc2)cc1 [antazoline] |
| 8.2 | CN(C)CCC=C1c2ccccc2COc2ccccc21 [Doxepin] |
| 9.65 | CN1CCN(C(c2ccccc2)c2ccc(Cl)cc2)CC1 (stereo not shown) [chlorcyclizine] |
| 7.94 | OCCN1CCN(CCCN2c3ccccc3Sc3ccc(Cl)cc32)CC1 [Perphenazine] |

same assay, conditions: listed as daunorubicin

| pKa | SMILES |
| --- | --- |
| 8.25 | COc1cccc2c1C(=O)c1c(O)c3c(c(O)c1C2=O)C[C@@](O)(C(C)=O)C[C@@H]3O[C@H]1C[C@H](N)[C@H](O)[C@H](C)O1 [daunomycin] |
